Measurements published in patent US6699836B2 (priority 1999, dated 2004).
In brackets after ≈: the same amount, converted by molar mass. Where two headings read alike, the source gives them in different places.

Assays:
Assay in all cases: MIC determination in BHI broth microdilution
Assay type in all cases: cell-based
S. aureus ATCC 33591 = system: S. aureus ATCC 33591
Method: (§1) In the Table below, MIC (minimum inhibitory concentration) values of certain compounds of the present invention are provided for the bacterial strains E. faecalis ATCC 29212; E. faecalis CL4877; E. faecium ATCC 49624; E. faecium CL4931; S. aures ATCC 29213; S. aureus ATCC 33591; and E. coli BAS 849. The MICs of the test compounds were determined using bacteria grown in brain heart infusion media (BHI) supplemented with 0.1% casamino acids. Logarithmically growing cells were diluted to approximately 5×10^5 CFU/ml and subjected to test compounds solubilized and serially diluted with DMSO. A 5% final DMSO concentration had no effect on cell viability or killing. After 18 hours at 37° C., the OD600 was determined by reading the ninety-six well microtiter plates on a microplate reader. For a given concentration, an MIC determination was made if: […]

S. aureus ATCC29213 = system: S. aureus ATCC29213
Method: (§2) The MICs of the test compounds were determined using bacteria grown in brain heart infusion media (BHI) supplemented with 0.1% casamino acids. Logarithmically growing cells were diluted to approximately 5×10^5 CFU/ml and subjected to test compounds solubilized and serially diluted with DMSO. […] After 18 hours at 37° C., the OD600 was determined by reading the ninety-six well microtiter plates on a microplate reader. For a given concentration, an MIC determination was made if: […]

E. faecalis ATCC 29212 = system: E. faecalis ATCC 29212
Method: as §2

E. faecium ATCC 49624 = system: E. faecium ATCC 49624
Method: as §2

E. faecalis CL4877 = system: E. faecalis CL4877
Method: as §2

E. faecium CL4931 = system: E. faecium CL4931
Method: as §2

E. coli BAS 849 = conditions: E. coli BAS849; BHI with 0.1% casamino acids, 18 hours at 37° C., OD600 ≧90% inhibition
Method: as §1

[1] = Staphylococcus aureus, ATCC33591, 18 h
[2] = Staphylococcus aureus, ATCC29213, 18 h, read-out: MIC
[3] = Enterococcus faecalis, ATCC29212, 18 h, read-out: MIC
[4] = Enterococcus faecium, ATCC49624, 18 h, read-out: MIC
[5] = Enterococcus faecalis, CL4877, 18 h, read-out: MIC
[6] = Enterococcus faecium, CL4931, 18 h, read-out: MIC
[7] = S. aureus ATCC33591, BHI with 0.1% casamino acids, 18 hours at 37° C., OD600 ≧90% inhibition
[8] = S. aureus ATCC29213, BHI with 0.1% casamino acids, 18 hours at 37° C., OD600 ≧90% inhibition
[9] = E. faecalis ATCC29212, BHI with 0.1% casamino acids, 18 hours at 37° C., OD600 ≧90% inhibition
[10] = E. faecium ATCC49624, BHI with 0.1% casamino acids, 18 hours at 37° C., OD600 ≧90% inhibition
[11] = E. faecalis CL4877, BHI with 0.1% casamino acids, 18 hours at 37° C., OD600 ≧90% inhibition
[12] = E. faecium CL4931, BHI with 0.1% casamino acids, 18 hours at 37° C., OD600 ≧90% inhibition
[13] = Staphylococcus aureus, ATCC29213, 18 h
[14] = Enterococcus faecalis, ATCC29212, 18 h
[15] = Enterococcus faecium, ATCC49624, 18 h
[16] = Enterococcus faecalis, CL4877, 18 h
[17] = Enterococcus faecium, CL4931, 18 h

Compound | MIC (S. aureus ATCC 33591; [1]) | MIC (S. aureus ATCC29213; [2]) | MIC (E. faecalis ATCC 29212; [3]) | MIC (E. faecium ATCC 49624; [4]) | MIC (E. faecalis CL4877; [5]) | MIC (E. faecium CL4931; [6]) | MIC (E. coli BAS 849) | MIC (S. aureus ATCC 33591; [7]) | MIC (S. aureus ATCC29213; [8]) | MIC (E. faecalis ATCC 29212; [9]) | MIC (E. faecium ATCC 49624; [10]) | MIC (E. faecalis CL4877; [11]) | MIC (E. faecium CL4931; [12]) | MIC (S. aureus ATCC29213; [13]) | MIC (E. faecalis ATCC 29212; [14]) | MIC (E. faecium ATCC 49624; [15]) | MIC (E. faecalis CL4877; [16]) | MIC (E. faecium CL4931; [17])
CN[C@H](CC(C)C)C(=O)N[C@H]1C(=O)N[C@@H](CC(N)=O)C(=O)N[C@H]2C(=O)NC3C(=O)N[C@H](C(=O)N[C@@H](C(=O)NCCCCN)c4cc(O)cc(O)c4-c4cc3ccc4O)[C@H](O)c3ccc(c(Cl)c3)Oc3cc2cc(c3OC2OC(CN=[N+]=[N-])C(O)C(O)C2OC2CC(C)(NCc3ccc(-c4ccc(Cl)cc4)cc3)C(O)C(C)O2)Oc2ccc(cc2Cl)[C@H]1O (stereo partly drawn) [TS0222] | 3.12 µg/mL (≈ 1.79 µM) | 1.56 µg/mL (≈ 0.895 µM) | 0.781 µg/mL (≈ 0.448 µM) | 0.25 µg/mL (≈ 0.143 µM) | 3.12 µg/mL (≈ 1.79 µM) | 3.12 µg/mL (≈ 1.79 µM) | – | – | – | – | – | – | – | – | – | – | – | –
CN[C@H](CC(C)C)C(=O)N[C@H]1C(=O)N[C@@H](CC(N)=O)C(=O)N[C@H]2C(=O)N[C@H]3C(=O)N[C@H](C(=O)N[C@H](C(=O)O)c4cc(O)cc(O)c4-c4cc3ccc4O)[C@H](O)c3ccc(c(Cl)c3)Oc3cc2cc(c3O[C@@H]2O[C@H](CO)[C@@H](O)[C@H](O)[C@H]2O[C@H]2C[C@](C)(N)[C@H](O)[C@H](C)O2)Oc2ccc(cc2Cl)[C@H]1O [EXT0002, vancomycin, reference compound] | – | – | – | – | – | – | 0.78 µg/mL (≈ 0.538 µM) | 0.78 to 3.12 µg/mL | 1.56 µg/mL (≈ 1.08 µM) | 1.56 to 3.12 µg/mL | 0.25 to 0.39 µg/mL | > 25 µg/mL | > 25 µg/mL | – | – | – | – | –
CN[C@H](CC(C)C)C(=O)N[C@H]1C(=O)N[C@@H](CC(N)=O)C(=O)N[C@H]2C(=O)NC3C(=O)N[C@H](C(=O)N[C@@H](C(=O)NCCN)c4cc(O)cc(O)c4-c4cc3ccc4O)[C@H](O)c3ccc(c(Cl)c3)Oc3cc2cc(c3OC2OC(CN)C(O)C(O)C2OC2CC(C)(NCc3ccc(OCc4ccc(Cl)c(Cl)c4)cc3)C(O)C(C)O2)Oc2ccc(cc2Cl)[C@H]1O (stereo partly drawn) [TS0258, 6′-amino-3,4-dichlorobenzyl oxylbenzyl-vancomycin 2-aminoethyl amide] | 12.5 µg/mL (≈ 7.12 µM) | – | – | – | – | – | – | – | – | – | – | – | – | 25 µg/mL (≈ 14.2 µM) | 12.5 µg/mL (≈ 7.12 µM) | 3.12 µg/mL (≈ 1.78 µM) | 25 µg/mL (≈ 14.2 µM) | 25 µg/mL (≈ 14.2 µM)
6′-amino- chlorobiphenyl methyl- vancomycin putrescine amide [TS0217] | – | – | – | – | – | – | 3.12 µg/mL | 3.12 µg/mL | 1.56 µg/mL | 1.56 µg/mL | 1.56 µg/mL | 6.25 µg/mL | 12.5 µg/mL | – | – | – | – | –
6′-amino-3,4- dichloro- benzyloxylben zyl- vancomycin putrescine amide [TS0216] | – | – | – | – | – | – | 3.12 µg/mL | 3.12 µg/mL | 3.12 µg/mL | 1.56 µg/mL | 3.12 µg/mL | 3.12 µg/mL | 6.25 µg/mL | – | – | – | – | –
6′-azido-3,4- dichloro- benzyloxyben zyl- vancomycin putrescine amide [TS0220] | – | – | – | – | – | – | – | 3.1250 µg/mL | 1.5625 µg/mL | 1.5625 µg/mL | 0.7813 µg/mL | 1.5625 µg/mL | 3.1250 µg/mL | – | – | – | – | –
CN[C@H](CC(C)C)C(=O)N[C@H]1C(=O)N[C@@H](CC(N)=O)C(=O)N[C@H]2C(=O)N[C@H]3C(=O)N[C@H](C(=O)N[C@@H](C(=O)NCCCCN)c4cc(O)cc(O)c4-c4cc3ccc4O)[C@H](O)c3ccc(c(Cl)c3)Oc3cc2cc(c3OC2OC(CO)C(O)C(O)C2OC2CC(C)(NCc3ccc(-c4ccc(Cl)cc4)cc3)C(O)C(C)O2)Oc2ccc(cc2Cl)[C@H]1O (stereo partly drawn) [TS0221, chlorobipheny lmethyl- vancomycin putrescine amide] | 0.781 µg/mL (≈ 0.454 µM) | 1.56 µg/mL (≈ 0.908 µM) | 1.56 µg/mL (≈ 0.908 µM) | 0.25 µg/mL (≈ 0.145 µM) | 12.5 µg/mL (≈ 7.27 µM) | 6.25 µg/mL (≈ 3.63 µM) | – | – | – | – | – | – | – | – | – | – | – | –
CN[C@H](CC(C)C)C(=O)N[C@H]1C(=O)N[C@@H](CC(N)=O)C(=O)N[C@H]2C(=O)NC3C(=O)N[C@H](C(=O)N[C@@H](C(=O)NCCN)c4cc(O)cc(O)c4-c4cc3ccc4O)[C@H](O)c3ccc(c(Cl)c3)Oc3cc2cc(c3OC2OC(CN=[N+]=[N-])C(O)C(O)C2OC2CC(C)(NCc3ccc(OCc4ccc(Cl)c(Cl)c4)cc3)C(O)C(C)O2)Oc2ccc(cc2Cl)[C@H]1O (stereo partly drawn) [TS0256, 6′-azido-3,4-dichlorobenzyl oxylbenzyl-vancomycin 2-aminoethyl amide] | 1.56 µg/mL (≈ 0.876 µM) | – | – | – | – | – | – | – | – | – | – | – | – | 1.56 µg/mL (≈ 0.876 µM) | 3.12 µg/mL (≈ 1.75 µM) | 0.39 µg/mL (≈ 0.219 µM) | 1.56 µg/mL (≈ 0.876 µM) | 6.25 µg/mL (≈ 3.51 µM)
N-methyl, N- chlorobiphenyl methyl-D- leucyl-6′-azido- chlorobiphenyl methyl vancomycin putrescine amide [TS0259] | – | – | – | – | – | – | – | 1.56 µg/mL | 3.12 µg/mL | 3.12 µg/mL | 1.56 µg/mL | 12.5 µg/mL | 6.25 µg/mL | – | – | – | – | –
